Assay results published in patent US20260159474A1, “Aminoindane Compounds and Compositions and Methods of Their Therapeutic Use” (Solvonis Therapeutics Ireland Holdings Limited, priority 2021, published 2026).
Entries after “also recorded” stand apart in the source; their conditions may differ. Where two headings read alike, the source gives them in different places.

Assays:
human DAT = target: T1, human DAT (Homo sapiens, UniProt Q01959); assay: DAT uptake SPA in hDAT-CHO cells; format: cell-based
T1 construct: expressed in transfected cells; host or cells: CHO (hDAT-CHO)
Experimental: Methods-Evaluation of Monoamine Uptake/Transporter Inhibition: Inhibitory activity on DAT function was measured using an uptake assay in a recombinant CHO cell line stably expressing human DAT (hDAT-CHO). Potency was measured in terms of pIC50 by testing for inhibition of [3H]-dopamine uptake in hDAT-CHO cells in a multiwell format SPA.
Briefly, on experiment days, hDAT-CHO cells were detached using Versene and added at a density of approximately 300,000 cells/mL to the SPA Mixture, which contains the following components in Assay Buffer (20 mM HEPES, 145 mM NaCl, 5 mM KCl, 2 mM CaCl2), 1 mM MgCl2, 5.5 mM glucose, 0.01% Pluronic F127, pH 7.3): 0.75 mg/mL SPA Imaging beads (RPNQ0001, PerkinElmer), 10 μM pargyline and 80 nM of [3H]-dopamine (NET673, PerkinEImer). The SPA Mixture was added 20 μL/well to 384 well plates containing 0.1 μL/well of test compound in neat DMSO (11 points of 1:5 serial dilution, 0.5% DMSO final) or 0.1 μL of DMSO (total uptake) or 0.1 μL of the standard inhibitor indatraline (at 1 μM final concentration, as nonspecific uptake). Plates were sealed with a Top-seal A and read using a Microbeta counter (PerkinElmer) after 45 minutes of incubation at room temperature. […] The SPA Mixture was added 20 μL/well to 384 well plates containing 0.1 μL/well of test compound in neat DMSO (11 points of 1:5 serial dilution, 0.5% DMSO final), 0.1 μL of DMSO (total uptake), or 0.1 μL of the standard inhibitor indatraline (1 μM, nonspecific uptake). Plates were sealed with a Top-seal A and read using a Microbeta counter (PerkinElmer) after 120 minutes of incubation at room temperature.
For both tests, the raw experimental data (cpm) were elaborated for the determination of pIC50/IC50 values as % inhibition of specific uptake.

[1] = system: 5-HT release in rat synaptosomes; assay: Serotonin release assay in rat cortex synaptosomes; format: biochemical; details: for 5-HT Release (pEC50): rat cortex synaptosomes, % of maximal release with 50 μM MDMA, n=2; for SERT/DAT Release Ratio: ratio of 5-HT and DA release potency, rat synaptosomes
Experimental: Methods-Evaluation of Monoamine Release: The potency of therapeutic compounds for stimulating DA release was measured by an endpoint release filtration assay in a 96-well format using rat synaptosomes, essentially as described by Sandtner et al. (Mol Pharmacol., 2016; 89(1):165-75.) and Baumann et al. (Neuropsychopharmacol, 2013; 38:552-562.) with some variations. One male rat was euthanized, and striatum/cortex regions were dissected over ice. The striatum portions were weighed and put in a glass tube containing ice-cold 0.32 M sucrose (dilution 1:24 w/v) for homogenization, while the frontal cortex tissue was diluted in ice-cold 0.32 M sucrose, 1:20 w/v. Tissues were homogenized and centrifuged for 10 mins at 1000×g. The two supernatants from striatum and cortex (crude synaptosomes) were retained on ice until use.
Test compounds were then serially diluted 1:4 in neat DMSO as concentration-response curves (CRC) of 11 points. To each well of a 2-mL 96 deep-well plate (Whatman UNIPLATE 96 well) were added: 2 μL of a concentration-response curve (CRC) of test compounds or 2 μL of DMSO (no-release condition) or 2 μL of MDMA 10 mM solution (final 50 μM, for maximal release), followed by 200 μL/well of complete Krebs-phosphate buffer (126 mM NaCl, 2.4 mM KCl, 0.83 mM CaCl2), 0.8 mM MgCl2, 0.5 mM KH2PO4, 0.5 mM Na2SO4, 11.1 mM glucose, 0.05 mM pargyline, 1 mg/mL ascorbic acid, freshly added, pH 7.4), containing 1 μM reserpine to block vesicular uptake of substrate. Desipramine (100 nM) and citalopram (100 nM) were also added to the release assay buffer in order to inhibit NET and SERT uptake, respectively. The final compound dilution, then, was 1:200 in 0.5% DMSO.
The raw data (cpm) from residual radioactivity onto the filter were elaborated for the determination of pEC50/EC50 values. Specifically, the compound effect was expressed as the percent of maximal release obtained with 50 μM MDMA (100% release) in comparison to vehicle (0.5% DMSO, 0% release). Both MDMA and D-amphetamine in CRC were used as internal controls in each release experiment. In each plate, for both 0% and 100% of release, the signal window was monitored and Z′ calculations were determined using the raw data of four replicates. 5-HT release was calculated in an identical fashion, except that 5 nM 3H-serotonin was added to crude cortex synaptosomes preparation diluted 1:13 (v/v) in complete Krebs-phosphate buffer containing 1 μM Reserpine, 100 nM GBR12909 and 100 nM nomifensine to block vesicular, DAT, and NET uptake, respectively. Synaptosomes were then loaded with 3H-5HT for 60 minutes at RT. After dispensing loaded synaptosomes onto a compound plate (200 μL/well), the release reaction proceeded for an additional 15 minutes. Stop by filtration, counting, and data elaboration were performed as described for DA release. Compounds were tested in duplicate (n=2).

[2] = Intrinsic clearance in human liver microsomes; format: in vitro ADME; details: for microsomal CLint at 0.5 μM: pH 7.4, read-out: Cl (μL/min/mg protein) - Human Microsomes
Experimental: Methods: The general procedure involved incubating test compounds with liver microsomes and subsequently detecting the compounds to determine intrinsic clearance. Clearance was estimated from the rate of depletion k (min-1), the volume of the incubation V (mL), and the amount of microsomal proteins in the incubation M (mg). Intrinsic clearance is defined by the following equation: Clint=k*V/M.
Values for CLint are expressed as μL/min/mg liver microsomes. Verapamil and dextromethorphan were used as positive controls for CYP3A4 and CYP2D6 isoforms, respectively, to confirm metabolic activity. Stock solutions were prepared in DMSO for therapeutic compounds and positive controls verapamil and dextromethorphan (10 mM for all). Working solutions were prepared by diluting stock in MeOH to reach […]. However, this concentration can be varied, e.g., when the test item is not soluble in the selected solvent.
Prior to experimentation, frozen liver microsomes were thawed in a water bath at 37° C. and kept on ice until use. The microsomes were then diluted with 50 mM potassium phosphate buffer pH 7.4 to a protein concentration of 0.56 mg/mL. To prepare test and control items in final incubation conditions, 5 μL of test compound and positive control working solutions were added to 445 μL of microsomes incubation mixture at 0.56 mg/mL and 50 μL of regenerating system.
As it relates to the automated incubation procedure for microsomes incubation, the following procedure was followed. Briefly, 150 μL of quenching solution (ACN containing an appropriate Internal Standard, i.e. Rolipram and Diclofenac for positive and negative ion mode, respectively) was manually dispensed or dispensed by using the Hamilton system in each well of 96 deep well 1 mL plates. Next, 800-1000 μL-aliquots of NADPH regenerating system were pre-warmed at 37° C. for 5 minutes. 5 μL of 50 µM test items and control were added to 445 μL of the 0.56 mg/mL microsomes solution, and the incubation mixture was pre-warmed in a 96 deep well 2 mL plate (incubation plate) at 37° C. for 5 minutes. The incubation reactions were initiated by adding 50 μL of pre-warmed NADPH regenerating system to the incubation mixtures.
50 μL-aliquots were sampled from incubation mixtures at: 0, 3, 10, 15, 30, and 45 minutes. The samples were centrifuged at 3,000 rpm for 10 minutes and further diluted in order to optimize the analytical condition prior to the LC MS/MS or Rapid Fire-MS/MS analysis. Incubations of test items were run in duplicate (n=2) with a single positive control (n=1). For sample analysis, an LC-MS/MS system was used to monitor the test samples/control to internal standard peak area ratios as representative of the test or control item's concentration. Data from test item incubation was processed to give mean values where applicable. Metabolic stability was calculated from the ratio of peak area of the remaining test or control item with internal standard versus time.
Peak areas for test and control items were integrated using Integrator Software from Agilent or Analyst or MultiQuant Software from AB SciexTM and were exported to XLFit or Morphit (The Edge), which were designed to calculate in vitro metabolic stability parameters. The integrated peak areas of the test and control items at the selected time points were divided by the respective peak areas of the IS, and the percent of parent remaining was calculated by normalizing the peak area ratio of parent to IS at 0 min. Observed rate constant (kobs) for parent degradation was calculated by determining the slope of the line of the graph of the natural log of percentage parent remaining versus time of incubation. This was scaled for the protein in the incubation relative to that in the liver.

[3] = [3H]-dopamine uptake, hDAT-CHO cells, read-out: DAT Uptake SPA (pIC50) (converted)

T1 sequence (Q01959 whole entry): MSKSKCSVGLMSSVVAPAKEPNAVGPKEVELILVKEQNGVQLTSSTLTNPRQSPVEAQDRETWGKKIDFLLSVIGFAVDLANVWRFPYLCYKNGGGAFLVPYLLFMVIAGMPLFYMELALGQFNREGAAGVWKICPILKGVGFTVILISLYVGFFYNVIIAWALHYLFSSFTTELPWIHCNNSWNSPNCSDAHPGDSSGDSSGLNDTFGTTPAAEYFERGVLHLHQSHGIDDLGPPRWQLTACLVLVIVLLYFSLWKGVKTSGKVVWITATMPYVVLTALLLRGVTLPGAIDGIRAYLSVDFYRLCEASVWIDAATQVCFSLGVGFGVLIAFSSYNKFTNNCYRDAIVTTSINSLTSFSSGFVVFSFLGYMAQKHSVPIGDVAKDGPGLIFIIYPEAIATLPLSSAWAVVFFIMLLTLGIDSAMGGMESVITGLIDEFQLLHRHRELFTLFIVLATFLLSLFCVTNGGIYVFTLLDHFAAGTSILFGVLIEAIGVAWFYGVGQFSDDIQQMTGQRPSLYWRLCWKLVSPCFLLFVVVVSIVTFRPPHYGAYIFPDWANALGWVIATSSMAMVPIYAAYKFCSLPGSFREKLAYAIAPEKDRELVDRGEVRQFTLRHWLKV

COC(=O)c1cc2c(cc1OC)CC(N)C2 (stereo not drawn) [CMP-401]
IC50 (human DAT; [3]): 100 µM | 5-HT Release (pEC50) [1]: 5.5 | SERT/DAT Release Ratio [1]: >35 | Cl (μL/min/mg protein) - Human Microsomes [2]: greater clearance in human microsomes relative to MDMA | microsomal CLint at 0.5 μM [2]: 87.2 µL/min/mg

COC(=O)COc1ccc2c(c1)CC(N)C2 (stereo not drawn) [CMP-402]
IC50 (human DAT; [3]): 100 µM | 5-HT Release (pEC50) [1]: 5.0 | SERT/DAT Release Ratio [1]: >10 | Cl (μL/min/mg protein) - Human Microsomes [2]: greater clearance in human microsomes relative to MDMA; also recorded: greatest clearance | microsomal CLint at 0.5 μM [2]: 758 µL/min/mg

COC(=O)c1ccc2c(c1)CC(N)C2 (stereo not drawn) [CMP-405, 2-aminoindane-5-methylcarboxylate]
IC50 (human DAT; [3]): 20 µM | 5-HT Release (pEC50) [1]: 6.1 | SERT/DAT Release Ratio [1]: 3.2 | Cl (μL/min/mg protein) - Human Microsomes [2]: greater clearance in human microsomes relative to MDMA | microsomal CLint at 0.5 μM [2]: 137 µL/min/mg

CNC(C)Cc1ccc2c(c1)OCO2 (stereo not drawn) [MDMA]
DAT Uptake SPA (pIC50) (human DAT; [3H]-dopamine uptake, hDAT-CHO cells): 5.7 | 5-HT Release (pEC50) [1]: 7.0 | SERT/DAT Release Ratio [1]: 2.6 | Cl (μL/min/mg protein) - Human Microsomes [2]: 41 μL/min/mg protein

COc1ccc2c(c1)CC(N)C2 (stereo not drawn) [MEAI, 5-methoxy-2-aminoindane]
IC50 (human DAT): 50.1 µM | 5-HT Release (pEC50) [1]: 6.8 | SERT/DAT Release Ratio [1]: 28 | microsomal CLint at 0.5 μM [2]: 137 µL/min/mg

COc1cc2c(cc1C)CC(N)C2 (stereo not drawn) [MMAI, 5-methoxy-6-methyl-2-aminoindane]
IC50 (human DAT): 50.1 µM | 5-HT Release (pEC50) [1]: 7.4 | SERT/DAT Release Ratio [1]: 575 | microsomal CLint at 0.5 μM [2]: 46.7 µL/min/mg
